Measured values reported in patent US8530404B2, “Compounds and methods for treatment of cancer” (FibroGen, Inc., priority 2005, dated 2013).
Marks after values point to notes of the source that are not given here.

How the values were obtained:
HCT116-GFP colon tumors = experiment: Orthotopically implanted human HCT116-GFP colon tumor mouse xenograft (Example 4); type: in vivo; conditions: 60 mg/kg intraperitoneal at four day intervals, three doses
Protocol: Procedures were carried out as described above for Example 3, except that the tumors of GFP-transfected H-460 cells were replaced with HCT116-GFP colon tumors, and surgical orthotopic implantation was directly into colon tissue.
The HCT116 tumor model used here is a well-characterized representative colon xenograft model. The isolation of the human HCT116 tumor cell line from a human colon carcinoma has been described. (Brattain et al (1981) Cancer Res 41:1751-1756.) To aid in the detection of tumors and metastases, HCT116 cells were transduced with genes directing the expression of fluorescent proteins (e.g., HCT116-GFP). The use of fluorescent HCT116-derived tumors in similar studies has been described previously. (Ross et al (2000) Nat Genet 24:227-235.)
HCT116-GFP tumor fragments harvested from the stock animals were transplanted into animals by surgical orthotopic implantation (SOI) as follows. The animals were anesthetized with isoflurane and the surgical area was sterilized using iodine and alcohol. After proper exposure of the colon following a lower midline abdominal incision, the serosa of the colon was removed and two pieces of 1 mm^3 tumor fragments per mouse were implanted. An 8-0 surgical suture was used to penetrate these small tumor pieces and suture them on the wall of the intestine. The intestine was then returned to the abdominal cavity. The incision in the abdominal wall was closed with a 6-0 surgical suture in one layer. The animals were kept under isoflurane anesthesia during surgery. All procedures of the operation described above were performed under a 7× magnification microscope (Olympus). Animals were kept in a barrier facility under HEPA filtration.
Administration of Compound A or 5-FU (5-Flurouracil) to the animals was initiated three days following tumor transplantation. 5-FU, a chemotherapeutic agent used as a positive control, was administered by intraperitoneal injection (60 mg/kg) at four day intervals for a total of three doses. Compound A was administered at either 20 mg/kg or 60 mg/kg three times per week. Tumor volumes were measured at day 15, day 22, and day 29.

[1] = tested on: human H-460-GFP lung tumors; experiment: Orthotopically implanted human H-460-GFP lung tumor mouse xenograft, survival and metastasis (Example 3); type: in vivo; conditions: 7.5 mg/kg i.v. on days 3, 7, 11
Protocol: To examine the effect of methods and compounds of the present invention in a metastatic model of tumor progression, compounds of the invention were administered to orthotopically implanted H-460-GFP xenografted animals. Tumor models employing surgical orthotopic implantation (SOI) into the organ of origin of the original tumor are regarded as representative of cancer progression and metastasis in humans. Orthotopic implantation of H-460 increases the rate of tumor metastasis.
This experiment is carried out as described in Example 1 above, with the following modifications. To aid in identification and scoring of metastasis, the human H-460 lung cancer cell line was replaced by genetically-engineered tumors of GFP-transfected H-460 cells. 1-2 mm^3 H460-GFP lung tumor fragments were implanted by surgical orthotopic implantation (SOI) and sutured directly into lung tissue. (Yang et al., (1998) Cancer Res 58:4217-4221.) Dosing was initiated immediately after successful confirmation of tumor take by fluorescent GFP imaging (˜5 days following tumor implantation). Doxorubicin (DOX, 7.5 mg/kg, i.v. administration) was used as a chemotherapy control, and was administered on treatment days 3, 7, and 11.
In addition to weekly caliper measurement of primary tumor size, GFP imaging was performed on animals to monitor primary tumor progression and metastasis, starting the first day of treatment. Study endpoints were reached when an average tumor size of 2 cc or three morbid mice appear in any one group, whichever occurs first, regardless of treatment duration. Each animal was checked daily for mortality or signs of morbidity. Morbid animals were frozen. All animals, including dead animals, were examined by GFP imaging for primary tumor and metastasis at necropsy. Imaging and caliper measurements were used to determine the effects of treatment. Primary tumors were excised, measured and weighed at necropsy. Blood samples were taken during terminal sacrifice and complete blood counts (CBC) and reticulocyte analysis were performed.
Tumor metastasis is associated with increased morbidity and mortality in humans with metastatic cancer and in animal models of metastatic cancer. […] The increased morbidity and mortality were recorded and animals were preserved for subsequent necropsy. The study was terminated after >3 animals were found morbid in the vehicle group on treatment day 14, at which point the remaining animals were sacrificed to evaluate and compare tumor progression in the various treatment groups.
To determine metastatic frequency, the thoracic and abdominal cavities of animals were examined by fluorescent imaging.

human H-460 lung tumors = experiment: Subcutaneously implanted human H-460 lung tumor mouse xenograft (Example 1); type: in vivo; conditions: 15 mg/kg i.v.
Description: Immuno-compromised athymic CD-1 nu/nu nude mice males (5-6 weeks old) were used in this study (Charles River Laboratories, Wilmington, Mass.). Animals were maintained in a HEPA-filtered environment during the experimental period. Cages, food, and bedding were autoclaved. Animal diets were obtained from Harlan Teklad (Madison, Wis.). […] The human H460 lung cancer cell line used was obtained from the National Cancer Institute. (Brower et al., (1986) Cancer Res 46:798-806.) Xenografted H-460 tumors are sensitive to chemotherapeutics commonly used in treatment of lung cancer. […] A stock tumor was established by subcutaneously injecting a cell suspension into nude mice. The resulting tumor was maintained in nude mice subcutaneously as tumor stock prior to use. Tumor implantation was performed when the stock tumors were in log phase of growth. Before implantation, tumor tissue was harvested from stock mice and placed in RPMI-1640 medium. Necrotic tissues were dissected away and viable tissues were cut into 1-2 mm^2 pieces. Tumor fragments were then transplanted subcutaneously to the right flank of the nude mice. Treatment (administration of compounds of the present invention) was started when the inoculated tumors reached approximately 100 mm^3, and continued for four weeks. […] [table] Sizes of the primary tumors were measured through the skin with calipers once per week. […] Body weight of the mice in each group was also measured once per week during the experimental period. All animals were sacrificed following thirty-two days of treatment. Primary tumors were excised and weighed on an electronic balance. Blood samples were taken during terminal sacrifice and placed in microhematocrit tubes containing EDTA. Complete Blood Counts (CBC) and reticulocyte analysis were performed with the Cell Dyn 3700 analyzer (Abbott Diagnostics), as described by the manufacturer.

[2] = Body weight in H-460 xenograft mice (Example 1); type: in vivo, mouse; conditions: 15 mg/kg i.v.
Protocol: (§1) Sizes of the primary tumors were measured through the skin with calipers once per week. Tumor volumes were calculated by the formula V═(W^2*L)/2. Body weight of the mice in each group was also measured once per week during the experimental period. All animals were sacrificed following thirty-two days of treatment. Primary tumors were excised and weighed on an electronic balance. Blood samples were taken during terminal sacrifice and placed in microhematocrit tubes containing EDTA. Complete Blood Counts (CBC) and reticulocyte analysis were performed with the Cell Dyn 3700 analyzer (Abbott Diagnostics), as described by the manufacturer.
Thus, differences in tumor progression as measured by mean tumor volumes could not be attributed to any generalized toxicity or suppression of normal metabolism that might have been detected by changes in body weights.

[3] = Complete blood counts and reticulocyte analysis in H-460 xenograft mice (Example 1); type: in vivo, mouse; conditions: study end; 15 mg/kg i.v.
Protocol: as §1

H460 tumor cells = experiment: Subcutaneous H460 lung tumor xenograft, tumor growth delay study in combination with chemotherapeutics (Example 6); type: in vivo, mouse; conditions: Cmpd A 60 mg/kg p.o., paclitaxel 15 mg/kg i.v., carboplatin 120 mg/kg i.p.; for Median TTE (Time-to-Endpoint, tumor volume >= 2 cc): vehicle group 16.2
Protocol: This study was used to determine the effect of combined treatments where compounds and methods of the invention were combined with conventional anti-tumor therapies. These experiments were performed essentially as described above in Example 3, except that 1×10^7 H460 tumor cells were implanted subcutaneously to the flanks of female Harlan nude animals. The number of animals in each group was 10. Treatments were initiated when tumors reached an average size of approximately 100 mm^3.
The study design was representative of tumor progression studies of the TGD (Tumor Growth Delay) type, using a protocol that required individual animals to be humanely euthanized after reaching a set endpoint of tumor volume greater than or equal to 2 cc.
These two chemotherapeutic agents are of two broad classes of conventional anti-tumor therapeutics: microtubule poisons (paclitaxcel); and DNA-directed agents, including the sub-classification of DNA alkylating agents (carboplatin). In tumor-bearing human patients, conventional anti-tumor therapy commonly use of one or both classes of chemotherapeutic agents.
The study was initiated with administration of conventional anti-tumor treatment or vehicle control, and followed one day after with administration of Compound A or vehicle control. […] (See Table 11 and Table 12 for compound and chemotherapeutic agent dosing schedule.)
Tumor progression was determined for each treatment group and is presented as median Time-to-Endpoint (TTE).

human A549 lung tumors = experiment: Subcutaneously implanted human A549 lung tumor mouse xenograft (Example 2); type: in vivo

Structure (SMILES): O=c1[nH]cc(F)c(=O)[nH]1 [Compound 5-FU, 5-Flurouracil, reference compound]
- mean tumor volume (calipers, mean +/- SD) (HCT116-GFP colon tumors; Treatment Day 15): 0 +/− 0
- mean tumor volume (calipers, mean +/- SD) (HCT116-GFP colon tumors; Treatment Day 22): 1 +/− 4
- mean tumor volume (calipers, mean +/- SD) (HCT116-GFP colon tumors; Treatment Day 29): 8 +/− 13

Structure (SMILES): COc1cccc2c1C(=O)c1c(O)c3c(c(O)c1C2=O)C[C@@](O)(C(=O)CO)C[C@@H]3O[C@H]1C[C@H](N)[C@H](O)[C@H](C)O1 [DOX, Doxorubicin, reference compound]
- Metastatic Incidence (proportion of animals exhibiting mediastinal lymph node metastasis) ([1]; vehicle 9/10): 4/10^#
- proportion of surviving animals ([1]; treatment day 9): 10/10
- proportion of surviving animals ([1]; treatment day 11): 10/10
- proportion of surviving animals ([1]; treatment day 12): 10/10
- proportion of surviving animals ([1]; treatment day 13): 10/10
- proportion of surviving animals ([1]; treatment day 14): 10/10

Structure (SMILES): CC(=O)O[C@H]1C(=O)[C@@]2(C)[C@H]([C@H](OC(=O)c3ccccc3)[C@]3(O)C[C@H](OC(=O)[C@H](O)[C@@H](NC(=O)c4ccccc4)c4ccccc4)C(C)=C1C3(C)C)[C@]1(OC(C)=O)CO[C@@H]1C[C@@H]2O [Taxol, paclitaxel, reference compound]
- mean tumor volume (human H-460 lung tumors; day 0): 83 mm^3
- mean tumor volume (human H-460 lung tumors; day 10): 387 mm^3
- mean tumor volume (human H-460 lung tumors; day 17): 813** mm^3
- mean tumor volume (human H-460 lung tumors; day 24): 1160** mm^3
- mean tumor volume (human H-460 lung tumors; day 31): 1292** mm^3
- Mean Tumor Weight at Necropsy (human H-460 lung tumors; day 32): 1.59 g
- mean animal body weight ([2]; day 0): 26.6 grams
- mean animal body weight ([2]; day 10): 29.5 grams
- mean animal body weight ([2]; day 17): 30.6 grams
- mean animal body weight ([2]; day 24): 31.1 grams
- mean animal body weight ([2]; day 31): 30.9 grams
- Abs Retic (reticulocyte count) [3]: 462
- Baso % [3]: 0.67%
- Baso (basophils) [3]: 70 µL⁻¹
- EOS % [3]: 0.83%
- Eos (eosinophil count) [3]: 70 µL⁻¹
- HCT (hematocrit) [3]: 41.5%
- HGB (hemoglobin) [3]: 14.1 g/dL
- IRF (immature RET fraction) [3]: 0.56
- Lymph % [3]: 24.7%
- Lymph (lymphocytes) [3]: 2600 µL⁻¹
- MCH (mean corpuscular hemoglobin) [3]: 15.6 pg
- MCV (mean corpuscular volume) [3]: 45.9 fL
- Mono (monocytes) [3]: 300 µL⁻¹
- Neut % [3]: 70.8%
- Neut (neutrophils) [3]: 7400 µL⁻¹
- PLAT (platelets) [3]: 1.943e+06 µL⁻¹
- RBC (red blood cells) [3]: 9.03e+06 µL⁻¹
- RDW (RBC distribution width) [3]: 21.8%
- RET (reticulocytes) [3]: 5.1%
- WBC (white blood cells) [3]: 10400 µL⁻¹
- % TGD, Percent Tumor Growth Delay (vs. Group control) (H460 tumor cells): 104%
- T-C (Test-control, difference of medians) (H460 tumor cells): 16.9 days
- Median TTE (Time-to-Endpoint, tumor volume >= 2 cc) (H460 tumor cells): 33.1 days
- tumor weight at necropsy, Mean (human A549 lung tumors; 15 mg/kg i.v.): 0.45 g
- A549 mean tumor volume (human A549 lung tumors; week 0, 15 mg/kg i.v.): 106 mm^3
- A549 mean tumor volume (human A549 lung tumors; week 1, 15 mg/kg i.v.): 130 mm^3
- A549 mean tumor volume (human A549 lung tumors; week 2, 15 mg/kg i.v.): 152 mm^3
- A549 mean tumor volume (human A549 lung tumors; week 3, 15 mg/kg i.v.): 177 mm^3
- A549 mean tumor volume (human A549 lung tumors; week 4, 15 mg/kg i.v.): 179 mm^3
- A549 mean tumor volume (human A549 lung tumors; week 5, 15 mg/kg i.v.): 186 mm^3
- A549 mean tumor volume (human A549 lung tumors; week 6, 15 mg/kg i.v.): 231 mm^3
- A549 mean tumor volume (human A549 lung tumors; week 7, 15 mg/kg i.v.): 275 mm^3
- A549 mean tumor volume (human A549 lung tumors; week 8, 15 mg/kg i.v.): 347 mm^3
- A549 mean tumor volume (human A549 lung tumors; week 9, 15 mg/kg i.v.): 360 mm^3
- increase in mean tumor volume (human A549 lung tumors; within 1 week (7 days) from start, Taxol 15 mg/kg i.v., vehicle control 45%): 23%

Structure (SMILES): N.N.O=C([O-])C1(C(=O)[O-])CCC1.[Pt+2] [carboplatin]
- % TGD, Percent Tumor Growth Delay (vs. Group control) (H460 tumor cells): 107%
- T-C (Test-control, difference of medians) (H460 tumor cells): 17.3 days
- Median TTE (Time-to-Endpoint, tumor volume >= 2 cc) (H460 tumor cells): 33.5 days
